Experimental data: PubChem BioAssay (NCI)
Values joined by “and” are separate entries in the source; they are usually repeats but may differ in a detail not shown here. Equal entries are not always repeated.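 Test compounds were applied to cells in 96-well plates for 48 hours at 5 doses. Here, GI50 denotes the concentration required for 50% inhibition of growth. TGI is the concentration that stops growth completely.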

Assays:
Assay in all cases: NCI anticancer screen, dose series, 48 h
M14 melanoma = system: M14 melanoma
SNB-75 CNS = system: SNB-75 CNS
NCI-H226 lung = system: NCI-H226 lung
UO-31 renal = system: UO-31 renal
SN12C renal = system: SN12C renal
OVCAR-4 ovarian = system: OVCAR-4 ovarian
LOX IMVI melanoma = system: LOX IMVI melanoma
ACHN renal = system: ACHN renal
SF-539 CNS = system: SF-539 CNS
NCI-H460 lung = system: NCI-H460 lung

Structure (SMILES) | GI50 (M14 melanoma) | TGI (M14 melanoma) | GI50 (SNB-75 CNS) [µM] | TGI (SNB-75 CNS) [µM] | GI50 (NCI-H226 lung) [µM] | TGI (NCI-H226 lung) | GI50 (UO-31 renal) [µM] | TGI (UO-31 renal) | GI50 (SN12C renal) [µM] | TGI (SN12C renal) [µM] | GI50 (OVCAR-4 ovarian) [µM] | TGI (OVCAR-4 ovarian) [µM] | GI50 (LOX IMVI melanoma) | TGI (LOX IMVI melanoma) | GI50 (ACHN renal) | TGI (ACHN renal) | GI50 (SF-539 CNS) | TGI (SF-539 CNS) | GI50 (NCI-H460 lung) | TGI (NCI-H460 lung)
CN1c2ccccc2C(C)(C)C12C=Cc1cc(O)ccc1O2 (configuration not stated) | 2.35 µM | 5.52 µM | 2.47 | 8.4 | 13.3 | 28.8 µM | 4.02 | 19.5 µM | 3.19 | 17.2 | 4.73 | 17.6 | 3.41 µM | 12.6 µM | 7.2 µM | 22.9 µM | 1.94 µM | 4.15 µM | 2.28 µM | 6.45 µM
CCc1cccc(C(C)C)c1N1C(=O)C(=O)C(c2nc3ccccc3s2)C(=O)C1=O | – | > 50 µM | – | > 50 | – | – | – | > 50 µM | – | > 50 | – | > 50 | – | > 50 µM | – | > 50 µM | – | > 50 µM | – | > 50 µM
C1CCN(c2nc(=[N+]3CCCCC3)ss2)CC1 | – | > 100 µM | – | > 100 | – | > 100 µM | – | > 100 µM | – | > 100 | – | > 100 | – | > 100 µM | – | > 100 µM | – | > 100 µM | – | > 100 µM
Cc1cc(N(CCNc2ccnc3cc(Cl)ccc23)Cc2ccco2)nc(Cl)n1 | 1.6 µM | 3.01 µM | 1.47 | 2.97 | – | – | 1.49 | 2.89 µM | 1.79 | 3.44 | 1.49 | 2.95 | 1.59 µM | 3.07 µM | 1.65 µM | 3.02 µM | 1.82 µM | 3.32 µM | 1.91 µM | 3.6 µM
O=C(Nc1nc2ncn(CCNCc3ccccc3)c2c(=O)[nH]1)c1ccccc1 | – | > 100 µM | – | > 100 | – | > 100 µM | – | > 100 µM | – | > 100 | – | > 100 | – | > 100 µM | – | > 100 µM | – | > 100 µM | – | > 100 µM
C[C@@H](CO)[C@@H]1CCC=C2CC[C@]3(C)[C@H](CC[C@@H]4[C@@]5(C)CCCNC(C)(C)[C@@H]5CC[C@]43C)[C@H]21 | 2.31 µM | 5.13 µM | 2.19 | 17.2 | 14.6 | 35.3 µM | 2.21 | 6.8 µM | 3.11 | 12.5 | 1.98 | 5.02 | 1.74 µM | 3.17 µM | 2.45 µM | 6.52 µM | 3.48 µM | 14.6 µM | 1.81 µM | 3.39 µM
COc1ccc2c(c1)n([O-])c1ccccc1[n+]2=O | 62.1 µM and 7.9 µM | > 100 µM and 21.7 µM | – | > 100 | – | 91.4 µM and 91.6 µM | – | 46 µM and 36.6 µM | – | > 100 | – | 77.8 | 29.5 µM and 7.2 µM | > 100 µM and 31.6 µM | 16.3 µM and 5.24 µM | 41.5 µM and 47.3 µM | 46.5 µM and 17.4 µM | > 100 µM and 45.9 µM | 16.8 µM and 5.54 µM | > 100 µM and 34.3 µM
CN(CC(=O)N(Cc1ccc(C2CCCCC2)cc1)c1ccc(C(=O)O)c(O)c1)S(=O)(=O)c1c(F)c(F)c(F)c(F)c1F | 3.07 µM | 13 µM | 6.07 | 16.7 | 18.6 | 41.5 µM | 12 | 25.8 µM | 6.74 | 24.4 | 14 | 27.8 | 1.6 µM | 3.01 µM | 15.3 µM | 28.8 µM | 18.2 µM | 35 µM | 16.4 µM | 36.5 µM
